{"source": "patent US6448405B1", "about": "“Steroid receptor modulator compounds and methods” (Ligand Pharmaceuticals Incorporated, priority 1994, dated 2002)", "target": "T1, human PR-B (Homo sapiens, UniProt P06401)", "T1 construct": "expressed in transfected cells; host or cells: CV-1 cells (African green monkey kidney fibroblasts), transient transfection", "T1 sequence (P06401 1-933)": "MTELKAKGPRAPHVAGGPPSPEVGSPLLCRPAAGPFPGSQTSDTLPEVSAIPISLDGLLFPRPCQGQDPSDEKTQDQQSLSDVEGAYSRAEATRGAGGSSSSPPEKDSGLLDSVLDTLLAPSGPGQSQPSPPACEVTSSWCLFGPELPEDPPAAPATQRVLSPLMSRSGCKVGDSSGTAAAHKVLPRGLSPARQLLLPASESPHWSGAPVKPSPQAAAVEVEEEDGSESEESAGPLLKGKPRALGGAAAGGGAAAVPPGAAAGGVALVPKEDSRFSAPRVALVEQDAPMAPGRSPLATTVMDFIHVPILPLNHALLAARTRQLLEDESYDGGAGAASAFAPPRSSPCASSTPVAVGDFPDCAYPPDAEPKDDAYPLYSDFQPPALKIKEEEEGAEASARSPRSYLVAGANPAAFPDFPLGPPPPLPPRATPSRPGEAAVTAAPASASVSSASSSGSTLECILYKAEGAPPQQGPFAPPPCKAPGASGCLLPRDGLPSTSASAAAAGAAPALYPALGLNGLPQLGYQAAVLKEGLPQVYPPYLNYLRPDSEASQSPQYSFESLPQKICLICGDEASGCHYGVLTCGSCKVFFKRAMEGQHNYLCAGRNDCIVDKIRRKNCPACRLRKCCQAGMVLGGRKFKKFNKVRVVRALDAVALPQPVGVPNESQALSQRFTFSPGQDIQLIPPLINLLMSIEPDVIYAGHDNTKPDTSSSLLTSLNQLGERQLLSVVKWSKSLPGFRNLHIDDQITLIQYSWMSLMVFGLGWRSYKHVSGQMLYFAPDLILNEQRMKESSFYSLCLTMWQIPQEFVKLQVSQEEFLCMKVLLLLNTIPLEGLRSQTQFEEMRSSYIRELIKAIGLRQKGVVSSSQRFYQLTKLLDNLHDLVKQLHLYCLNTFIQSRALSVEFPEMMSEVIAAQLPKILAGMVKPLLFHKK", "assay": "Co-transfection assay, PR agonist and antagonist activity, CV-1 cells;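 on all read-outs here: luciferase reporter driven by a hormone response element, co-transfected with human PR-B into CV-1 monkey kidney cells, agonists raise and antagonists lower the reporter signal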", "assay_type": "cell-based", "conditions": "for EC50: read-out: PR Agonist CV-1 Cells Potency; for PR Antagonist CV-1 Cells Efficacy (%): antagonist mode, progesterone at its EC50, % maximal inhibition; for IC50: read-out: PR Antagonist CV-1 Cells Potency", "data": [{"smiles": "CC1=CC(C)(C)Nc2ccc3c(c21)C(c1cccc(C(F)(F)F)c1)Oc1ccccc1-3", "note": "(racemic) [Compound 195, (R/S) 1,2-Dihydro-2,2,4-trimethyl-5-[3-(trifluoromethyl)phenyl]-5H-chromeno[3,4-f]quinoline]", "values": [{"measurement": "EC50", "setting": "agonist mode", "value": 0.013, "unit": "µM"}, {"measurement": "PR Antagonist CV-1 Cells Efficacy (%)", "value": "na (na = not active (i.e. efficacy or <20 and potency of >10,000))"}, {"measurement": "IC50", "value": "> 10", "unit": "µM"}]}, {"smiles": "CC1=CC(C)(C)Nc2ccc3c(c21)C(c1ccccc1)Oc1ccccc1-3", "note": "(racemic) [Compound 161, (R/S)-1,2-Dihydro-2,2,4-trimethyl-5-phenyl-5H-chromeno[3,4-f]quinoline]", "values": [{"measurement": "EC50", "setting": "agonist mode", "value": 0.203, "unit": "µM"}, {"measurement": "PR Agonist CV-1 Cells Efficacy (%)", "setting": "agonist mode, percent maximal response relative to reference agonist progesterone", "value": 47, "unit": "%"}, {"measurement": "PR Antagonist CV-1 Cells Efficacy (%)", "value": 75, "unit": "%"}, {"measurement": "IC50", "value": 0.209, "unit": "µM"}]}]}
